{
  "source": "ChEMBL document CHEMBL5715937",
  "about": "“In vitro activity of Bcr-Abl inhibitors AMN107 and BMS-354825 against clinically relevant imatinib-resistant Abl kinase domain mutants” (Cancer Res, 2005)",
  "key": {"BaF3 [1]": {"system": "BaF3", "experiment": "Induction of apoptosis in mouse BaF3 cells expressing Bcr-Abl G250E mutant assessed as increase in apoptotic cells at 1500 nM incubated for 72 hrs by Annexin V-phycoerythrin and 7-amino-actinomycin D staining based PCA instrument analysis relative to control", "type": "functional"}, "BaF3 [2]": {"system": "BaF3", "experiment": "Induction of apoptosis in mouse BaF3 cells expressing Bcr-Abl E255K mutant assessed as increase in apoptotic cells at 1500 nM incubated for 72 hrs by Annexin V-phycoerythrin and 7-amino-actinomycin D staining based PCA instrument analysis relative to control", "type": "functional"}, "[3]": {"experiment": "Inhibition of BCR-ABL F311L mutant (unknown origin) expressed in mouse BaF3 cells assessed as inhibition of tyrosine phosphorylation incubated for 3 hrs by immunoblotting analysis", "type": "cell-based", "settings": "BaF3, 3 h"}, "BaF3 [4]": {"system": "BaF3", "experiment": "Induction of apoptosis in mouse BaF3 cells expressing Bcr-Abl M351T mutant assessed as increase in apoptotic cells at 1500 nM incubated for 72 hrs by Annexin V-phycoerythrin and 7-amino-actinomycin D staining based PCA instrument analysis relative to control", "type": "functional"}, "cells [5]": {"experiment": "cells", "settings": "Mus musculus, BaF3, 3 h"}, "BaF3 [6]": {"system": "BaF3", "experiment": "Induction of apoptosis in mouse BaF3 cells expressing Bcr-Abl G250E mutant at 30 to 300 nM incubated for 72 hrs by Annexin V-phycoerythrin and 7-amino-actinomycin D staining based PCA instrument analysis", "type": "functional, cell-based", "settings": "dose 30-300 nM"}, "[7]": {"experiment": "Inhibition of BCR-ABL Y253H mutant (unknown origin) expressed in mouse BaF3 cells assessed as inhibition of cell growth incubated for 72 hrs by […] CellTiter96 viability analysis"}, "BaF3 [8]": {"system": "BaF3", "experiment": "Induction of apoptosis in mouse BaF3 cells expressing Bcr-Abl E255K mutant at 30 to 300 nM incubated for 72 hrs by Annexin V-phycoerythrin and 7-amino-actinomycin D staining based PCA instrument analysis", "type": "functional, cell-based", "settings": "dose 30-300 nM"}, "BaF3 [9]": {"system": "BaF3", "experiment": "Induction of apoptosis in mouse BaF3 cells expressing Bcr-Abl F359V mutant assessed as increase in apoptotic cells at 1500 nM incubated for 72 hrs by Annexin V-phycoerythrin and 7-amino-actinomycin D staining based PCA instrument analysis relative to control", "type": "functional"}, "[10]": {"experiment": "Inhibition of BCR-ABL H396P mutant (unknown origin) expressed in mouse BaF3 cells assessed as inhibition of tyrosine phosphorylation incubated for 3 hrs by immunoblotting analysis", "type": "cell-based", "settings": "BaF3, 3 h"}, "cells [11]": {"experiment": "cells", "settings": "Mus musculus, BaF3, 3 h", "remark": "listed apart in the source"}, "[12]": {"experiment": "Inhibition of BCR-ABL G250E mutant (unknown origin) expressed in mouse BaF3 cells assessed as inhibition of cell growth incubated for 72 hrs by […] CellTiter96 viability analysis"}, "cells [13]": {"experiment": "cells", "settings": "Mus musculus, BaF3, 3 h", "remark": "listed apart in the source"}, "BaF3 [14]": {"system": "BaF3", "experiment": "Induction of apoptosis in mouse BaF3 cells expressing Bcr-Abl T315l mutant assessed as increase in apoptotic cells at 1500 nM incubated for 72 hrs by Annexin V-phycoerythrin and 7-amino-actinomycin D staining based PCA instrument analysis relative to control", "type": "functional"}, "BaF3 [15]": {"system": "BaF3", "experiment": "Induction of apoptosis in mouse BaF3 cells expressing Bcr-Abl Q252H mutant at 30 to 300 nM incubated for 72 hrs by Annexin V-phycoerythrin and 7-amino-actinomycin D staining based PCA instrument analysis", "type": "functional, cell-based", "settings": "dose 30-300 nM"}, "BaF3 [16]": {"system": "BaF3", "experiment": "Induction of apoptosis in mouse BaF3 cells expressing Bcr-Abl H396R mutant at 30 to 300 nM incubated for 72 hrs by Annexin V-phycoerythrin and 7-amino-actinomycin D staining based PCA instrument analysis", "type": "functional, cell-based", "settings": "dose 30-300 nM"}, "BaF3 [17]": {"system": "BaF3", "experiment": "Induction of apoptosis in mouse BaF3 cells expressing Bcr-Abl M351T mutant at 30 to 300 nM incubated for 72 hrs by Annexin V-phycoerythrin and 7-amino-actinomycin D staining based PCA instrument analysis", "type": "functional, cell-based", "settings": "dose 30-300 nM"}, "[18]": {"experiment": "Inhibition of BCR-ABL M351T mutant (unknown origin) expressed in mouse BaF3 cells assessed as inhibition of cell growth incubated for 72 hrs by […] CellTiter96 viability analysis"}, "BaF3 [19]": {"system": "BaF3", "experiment": "Induction of apoptosis in mouse BaF3 cells expressing Bcr-Abl F359V mutant at 30 to 300 nM incubated for 72 hrs by Annexin V-phycoerythrin and 7-amino-actinomycin D staining based PCA instrument analysis", "type": "functional, cell-based", "settings": "dose 30-300 nM"}, "cells [20]": {"experiment": "cells", "settings": "Mus musculus, BaF3, 3 h", "remark": "listed apart in the source"}, "cells [21]": {"experiment": "cells", "settings": "Mus musculus, BaF3, 3 h", "remark": "listed apart in the source"}, "BaF3 [22]": {"system": "BaF3", "experiment": "Induction of apoptosis in mouse BaF3 cells expressing Bcr-Abl Y253F mutant assessed as increase in apoptotic cells at 1500 nM incubated for 72 hrs by Annexin V-phycoerythrin and 7-amino-actinomycin D staining based PCA instrument analysis relative to control", "type": "functional"}, "cells [23]": {"experiment": "cells", "settings": "Mus musculus, BaF3, 3 h", "remark": "listed apart in the source"}, "BaF3 [24]": {"system": "BaF3", "experiment": "Induction of apoptosis in mouse BaF3 cells expressing Bcr-Abl H396P mutant assessed as increase in apoptotic cells at 1500 nM incubated for 72 hrs by Annexin V-phycoerythrin and 7-amino-actinomycin D staining based PCA instrument analysis relative to control", "type": "functional"}, "[25]": {"experiment": "Inhibition of BCR-ABL Y253F mutant (unknown origin) expressed in mouse BaF3 cells assessed as inhibition of cell growth incubated for 72 hrs by […] CellTiter96 viability analysis"}, "[26]": {"experiment": "Inhibition of BCR-ABL V379l mutant (unknown origin) expressed in mouse BaF3 cells assessed as inhibition of cell growth incubated for 72 hrs by […] CellTiter96 viability analysis"}, "BaF3 [27]": {"system": "BaF3", "experiment": "Induction of apoptosis in mouse BaF3 cells expressing Bcr-Abl F311L mutant at 30 to 300 nM incubated for 72 hrs by Annexin V-phycoerythrin and 7-amino-actinomycin D staining based PCA instrument analysis", "type": "functional, cell-based", "settings": "dose 30-300 nM"}, "BaF3 [28]": {"system": "BaF3", "experiment": "Induction of apoptosis in mouse BaF3 cells expressing Bcr-Abl H396P mutant at 30 to 300 nM incubated for 72 hrs by Annexin V-phycoerythrin and 7-amino-actinomycin D staining based PCA instrument analysis", "type": "functional, cell-based", "settings": "dose 30-300 nM"}, "BaF3 [29]": {"system": "BaF3", "experiment": "Induction of apoptosis in mouse BaF3 cells expressing Bcr-Abl V379l mutant at 30 to 300 nM incubated for 72 hrs by Annexin V-phycoerythrin and 7-amino-actinomycin D staining based PCA instrument analysis", "type": "functional, cell-based", "settings": "dose 30-300 nM"}, "BaF3 [30]": {"system": "BaF3", "experiment": "Induction of apoptosis in mouse BaF3 cells expressing Bcr-Abl E255V mutant assessed as increase in apoptotic cells at 1500 nM incubated for 72 hrs by Annexin V-phycoerythrin and 7-amino-actinomycin D staining based PCA instrument analysis relative to control", "type": "functional"}, "[31]": {"experiment": "Inhibition of BCR-ABL E255K mutant (unknown origin) expressed in mouse BaF3 cells assessed as inhibition of cell growth incubated for 72 hrs by […] CellTiter96 viability analysis"}, "BaF3 [32]": {"system": "BaF3", "experiment": "Induction of apoptosis in mouse BaF3 cells expressing wild-type Bcr-Abl assessed as increase in apoptotic cells at 1500 nM incubated for 72 hrs by Annexin V-phycoerythrin and 7-amino-actinomycin D staining based PCA instrument analysis relative to control", "type": "functional"}, "[33]": {"settings": "BaF3, time 72 hrs, condition chronic myelogenous leukemia"}},
  "note": "Active and inactive are the calls of the source. The calls are words filed in the database; no cut-off is given here.",
  "data": [
    {"smiles": "Cc1cn(-c2cc(NC(=O)c3ccc(C)c(Nc4nccc(-c5cccnc5)n4)c3)cc(C(F)(F)F)c2)cn1", "note": "[NILOTINIB]", "values": [
      {"measurement": "Activity", "setting": "BaF3 [1]", "value": ">90", "unit": "%"},
      {"measurement": "Activity", "setting": "BaF3 [2]", "value": ">90", "unit": "%"},
      {"measurement": "IC50", "setting": "[3]", "value": 44, "unit": "nM"},
      {"measurement": "Activity", "setting": "BaF3 [4]", "value": ">90", "unit": "%"},
      {"measurement": "IC50", "setting": "cells [5]", "value": 7, "unit": "nM"},
      {"measurement": "Activity", "setting": "BaF3 [6]", "value": "Active"},
      {"measurement": "IC50", "setting": "[7]; BaF3, 72 h", "value": 450, "unit": "nM"},
      {"measurement": "IC90", "setting": "[7]; [33]", "value": 1020, "unit": "nM"},
      {"measurement": "Activity", "setting": "BaF3 [8]", "value": "Active"},
      {"measurement": "Activity", "setting": "BaF3 [9]", "value": ">90", "unit": "%"},
      {"measurement": "IC50", "setting": "[10]", "value": 70, "unit": "nM"},
      {"measurement": "IC50", "setting": "cells [11]", "value": 8, "unit": "nM"},
      {"measurement": "IC50", "setting": "[12]; BaF3, 72 h", "value": 48, "unit": "nM"},
      {"measurement": "IC90", "setting": "[12]; [33]", "value": 152, "unit": "nM"},
      {"measurement": "IC50", "setting": "cells [13]", "value": 47, "unit": "nM"},
      {"measurement": "Activity", "setting": "BaF3 [14]", "value": 3, "unit": "%"},
      {"measurement": "Activity", "setting": "BaF3 [15]", "value": "Active"},
      {"measurement": "Activity", "setting": "BaF3 [16]", "value": "Active"},
      {"measurement": "Activity", "setting": "BaF3 [17]", "value": "Active"},
      {"measurement": "IC50", "setting": "[18]; BaF3, 72 h", "value": 15, "unit": "nM"},
      {"measurement": "IC90", "setting": "[18]; [33]", "value": 31, "unit": "nM"},
      {"measurement": "Activity", "setting": "BaF3 [19]", "value": "Active"},
      {"measurement": "IC50", "setting": "cells [20]", "value": 155, "unit": "nM"},
      {"measurement": "IC50", "setting": "cells [21]", "value": 55, "unit": "nM"},
      {"measurement": "Activity", "setting": "BaF3 [22]", "value": ">90", "unit": "%"},
      {"measurement": "IC50", "setting": "cells [23]", "value": 70, "unit": "nM"},
      {"measurement": "Activity", "setting": "BaF3 [24]", "value": ">90", "unit": "%"},
      {"measurement": "IC50", "setting": "[25]; BaF3, 72 h", "value": 125, "unit": "nM"},
      {"measurement": "IC90", "setting": "[25]; [33]", "value": 215, "unit": "nM"},
      {"measurement": "IC50", "setting": "[26]; BaF3, 72 h", "value": 51, "unit": "nM"},
      {"measurement": "IC90", "setting": "[26]; [33]", "value": 115, "unit": "nM"},
      {"measurement": "Activity", "setting": "BaF3 [27]", "value": "Active"},
      {"measurement": "Activity", "setting": "BaF3 [28]", "value": "Active"},
      {"measurement": "Activity", "setting": "BaF3 [29]", "value": "Active"},
      {"measurement": "Activity", "setting": "BaF3 [30]", "value": 65, "unit": "%"},
      {"measurement": "IC50", "setting": "[31]; BaF3, 72 h", "value": 200, "unit": "nM"},
      {"measurement": "IC90", "setting": "[31]; [33]", "value": 415, "unit": "nM"},
      {"measurement": "Activity", "setting": "BaF3 [32]", "value": ">90", "unit": "%"}
    ]}
  ]
}
